Data on three compounds can be found in publication PMC12598805, “Crystal Structure–Activity Relationship of Some MeO Phenylacrylonitriles: Dual Antimicrobial–Cytotoxic Effects and in Silico Perspectives” (ChemistryOpen, 2025).

Type in all cases: cell-based
Experiment [1] relates to Salmonella typhimurium (NRRL-B-4420). The experiment in a line: Agar diffusion, zone of inhibition. The conditions noted are these: Salmonella enterica; S.typhimurium; compounds at 50 mg mL^−1. The text has this: (§1) The antibacterial and antifungal activities were reported utilizing the method described by the Clinical & Laboratory Standards Institute.^[ [31], [32] ^] Agar diffusion method was used to determine the antimicrobial activity of the synthesized substances. The media used were mueller hinton agar (MHA) for bacteria and sabouraud‐dextrose agar (SDA) for fungi (Merck), as recommended by the manufacturer.
(§2) The synthesized compounds were initially investigated for their antimicrobial activity to elucidate the potential therapeutic utility against various pathogenic microbes using the agar plate diffusion method. The compounds were tested at a concentration of 50 mg mL^−1, and the antibiotics (ampicillin, kanamycin, and amphotericin B) were used at 5 mg mL^−1. […] K.pneumoniae and B.cereus were resistant to ampicillin, while they were susceptible to kanamycin with inhibition values of 30 and 26 mm, respectively. No antimicrobial activity of the compounds was observed against E.faecalis, S.typhimurium, K.pneumoniae, and for the fungus compared to Amphotericin B (20 mm). […]
Salmonella typhimurium (NRRL-B-4420) […]
(§3) ATCC: American Type Culture Collection; NRRL: Northern Regional Research Laboratory The compounds 2(a-c) obtained could only be completely solubilised with dimethyl sulphoxide (DMSO) and the highest possible stock solutions of 50 mg.mL-1 were prepared. To these wells 50 μl of the previously prepared substances were transferred using sterile micropipette tips. For comparison, Ampicillin and kanamycin antibiotics for bacteria and Amphotericin B antibiotics for fungus were used as positive controls and DMSO was used as negative control. The prepared petri plates were kept at +4°C for about 1 hour and then the bacterial cultures were incubated at 37°C for 18-24 hours and mould cultures at 27-30°C for 48-72 hours. The zones formed were measured millimetrically with callipers. The experiments were performed with three repetitions. […]
Background: Agar diffusion results depend on both activity and mobility in agar.

Experiment [2] has as its system Bacillus cereus (ATCC-10876). The experiment in a line: Agar diffusion, zone of inhibition. The conditions noted are these: B.cereus, compounds at 50 mg mL^−1; for zone of inhibition at 50 mg/mL: Bacillus cereus, ATCC10876.
From the text: as §1
The synthesized compounds were initially investigated for their antimicrobial activity to elucidate the potential therapeutic utility against various pathogenic microbes using the agar plate diffusion method. The compounds were tested at a concentration of 50 mg mL^−1, and the antibiotics (ampicillin, kanamycin, and amphotericin B) were used at 5 mg mL^−1. […] K.pneumoniae and B.cereus were resistant to ampicillin, while they were susceptible to kanamycin with inhibition values of 30 and 26 mm, respectively. No antimicrobial activity of the compounds was observed against E.faecalis, S.typhimurium, K.pneumoniae, and for the fungus compared to Amphotericin B (20 mm).
(§4) Bacillus cereus (ATCC-10876) […]
as §3

For experiment [3], the system named is Staphylococcus aureus (ATCC 29213). The experiment in a line: Agar diffusion, zone of inhibition. Conditions: S.aureus, compounds at 50 mg mL^−1; for zone of inhibition at 50 mg/mL: Staphylococcus aureus, ATCC29213.
From the text: as §1, §2
(§5) Staphylococcus aureus (ATCC 29213) […]
as §3

Experiment [4] deals with Bacillus cereus (ATCC-10876). The experiment in a line: MBC by sub-culture from wells without growth. The conditions noted are these: Bacillus cereus, ATCC10876; B.cereus; read-out: MBC. The procedure: as §4
(§6) ATCC: American Type Culture Collection; NRRL: Northern Regional Research Laboratory The compounds 2(a-c) obtained could only be completely solubilised with dimethyl sulphoxide (DMSO) and the highest possible stock solutions of 50 mg.mL-1 were prepared. […]
(§7) 3.1. Determination of Minimum Inhibition Concentration (MIC)
(§8) The minimum inhibition concentration (MIC) values of the compounds 2(a-c) against the test bacteria used in the study were determined according to the broth microdilution method.[1-2] MHB or SDB was used as test medium and bacterial and yeast suspensions were prepared at 0.5 Mc Farland concentration for each test bacteria. Double layer serial dilutions were prepared in "U" type 96-well microtiter plates. Medium+bacteria suspensions containing only medium in the first row, medium+bacteria in the second row and the final concentrations of the synthesised substances in the other rows between 25 mg.mL-1 and […] were added to the wells with a final volume of 200
(§9) μL. Ampicillin, Kanamycin and Amphotericin B standard antibiotics were used as positive controls.
Bacteria were incubated at 37±0.1 °C and C. albicans at 30±0.1 °C for 24-48 hours and the lowest concentration without growth was determined as MIC. Tests were performed in two parallel runs and mean values were given as a result. In order to estimate “the minimum bactericidal/fungicidal concentrations (MBC/MFC) of the synthesised acrylonitrile derivatives “needed to indicate […] killing of the original inoculum,” 10 μl was taken from the wells with no observed growth and further sub-cultured onto their agar media (MHA and SDA for bacterial and fungal strains, respectively).[3] […]

Experiment [5] deals with Staphylococcus aureus (ATCC 29213). The experiment in a line: Broth microdilution MIC. The conditions noted are these: ATCC29213, S.aureus. The procedure:
as §5, §6, §7, §8, §9
Bacteria were incubated at 37±0.1 °C and C. albicans at 30±0.1 °C for 24-48 hours and the lowest concentration without growth was determined as MIC. Tests were performed in two parallel runs and mean values were given as a result. […]
A general note: In broth dilution the organism is exposed to a series of concentrations in liquid medium.

The subject of experiment [6] is Micrococcus luteus (NRRL-B-1018). The experiment in a line: Agar diffusion, zone of inhibition. The conditions noted are these: M.luteus, compounds at 50 mg mL^−1; for zone of inhibition at 50 mg/mL: Micrococcus luteus, NRRLB1018.
From the text: as §1, §2
Micrococcus luteus (NRRL-B-1018) […]
as §3

SMILES strings stand for the structures. In brackets after ≈: the same amount, converted by molar mass. Some results are limits rather than exact numbers.

As a reminder, the zone of inhibition is the size of the clear area around the sample on an inoculated plate. Lower therefore signals little suppression of growth. A word on the MBC: it is the smallest concentration meeting the test's criterion for killing. The term MIC denotes the least concentration at which growth counts as inhibited. High values mean a need for much substance, low ones inhibition by little substance. Consider `COc1ccc(C=C(C#N)c2ccccc2)cc1` [2a, 3‐(4‐methoxyphenyl)‐2‐phenylacrylonitrile], for which the zone of inhibition at 50 mg/mL was less than 6 mm in experiment [1], 15 mm in experiment [2], 14 mm in experiment [3] and 14 mm in experiment [6]. Moreover, the zone of inhibition in experiment [2] is listed as 15 ± 2.12 mm; in experiment [3] it was 14 ± 0.71 mm; in experiment [6] it was 14 ± 0.71 mm. Also, in experiment [4], the MBC turned out to be 12.5 mg/mL (≈ 53.1 mM). In addition, 12.5 mg/mL (≈ 53.1 mM) was the least that counted as inhibitory in experiment [5] (MIC).
Consider `COc1ccc(/C=C(\C#N)c2ccc(F)cc2)cc1` [2b], for which the zone of inhibition at 50 mg/mL in experiment [1] is less than 6 mm; in experiment [2], 13 mm; in experiment [3], 13 mm; in experiment [6], 14 mm. In addition, the zone of inhibition in experiment [2] turned out to be 13 ± 2.83 mm; in experiment [3], 13 ± 0 mm; in experiment [6] it was 14 ± 0.71 mm. In addition, the MBC in experiment [4] is 12.5 mg/mL (≈ 49.4 mM). Moreover, the MIC in experiment [5] came out at 12.5 mg/mL (≈ 49.4 mM).
With `COc1ccc(/C=C(\C#N)c2cc(C(F)(F)F)cc(C(F)(F)F)c2)cc1` [2c], the zone of inhibition at 50 mg/mL was less than 6 mm in experiment [1], 14 mm in experiment [2], 14 mm in experiment [3] and 15 mm in experiment [6]. In addition, the zone of inhibition in experiment [2] is 14 ± 0.71 mm; in experiment [3], 14 ± 1.41 mm; in experiment [6], 15 ± 0.71 mm. Moreover, in experiment [4], the MBC was found to be 12.5 mg/mL (≈ 33.7 mM). The compound further registered an MIC in experiment [5] of 6.25 mg/mL (≈ 16.8 mM).
